In the supplement of paper PMC10307832:

Legend:
Assay in all cases: relative viability (nuclei count vs DMSO), 5 days (fraction); higher = more cells survive
NCI-H1666 = system: NCI-H1666
Procedure, shortened: (§1)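 Lung cancer cell lines, seeded in 1536-well plates, were treated the following day by pin tool with a single drug or with five library-drug doses (not always all listed) in √10 steps on top of a fixed anchor-drug dose. Cells were fixed and nuclei stained in one step after 5 days, and nuclei were counted. Relative viability is the nuclei count for treated wells divided by that for vehicle wells, reported as medians of duplicate plates.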

CAL-12T = system: CAL-12T
Procedure, shortened: as §1

NCI-H1395 = system: NCI-H1395
Procedure, shortened: as §1

NCI-H520 = system: NCI-H520
Procedure, shortened: as §1

LCLC-103H = system: LCLC-103H
Procedure, shortened: as §1

NCI-H647 = system: NCI-H647
Procedure, shortened: as §1

NCI-H2170 = system: NCI-H2170
Procedure, shortened: as §1

NCI-H1993 = system: NCI-H1993
Procedure, shortened: as §1

NCI-H1651 = system: NCI-H1651
Procedure, shortened: as §1

NCI-H2347 = system: NCI-H2347
Procedure, shortened: as §1

NCI-H2085 = system: NCI-H2085
Procedure, shortened: as §1

COR-L23 = system: COR-L23
Procedure, shortened: as §1

HCC-44 = system: HCC-44
Procedure, shortened: as §1

NCI-H23 = system: NCI-H23
Procedure, shortened: as §1

NCI-H2342 = system: NCI-H2342
Procedure, shortened: as §1

ChaGo-K-1 = system: ChaGo-K-1
Procedure, shortened: as §1

NCI-H322M = system: NCI-H322M
Procedure, shortened: as §1

NCI-H1355 = system: NCI-H1355
Procedure, shortened: as §1

201T = system: 201T
Procedure, shortened: as §1

NCI-H661 = system: NCI-H661
Procedure, shortened: as §1

HOP-62 = system: HOP-62
Procedure, shortened: as §1

NCI-H2228 = system: NCI-H2228
Procedure, shortened: as §1

LC-2-ad = system: LC-2-ad
Procedure, shortened: as §1

NCI-H838 = system: NCI-H838
Procedure, shortened: as §1

SMILES: CCCCCCCCCCCC1=C(O)C(=O)C=C(O)C1=O [Embelin] + CC(=O)Nc1cccc(-n2c(=O)n(C3CC3)c(=O)c3c(Nc4ccc(I)cc4F)n(C)c(=O)c(C)c32)c1 [Trametinib] (partner 0.02 µM)
- relative viability (NCI-H1666; first compound 0.08 µM): 0.813
- relative viability (NCI-H1666; first compound 0.8 µM): 0.824
- relative viability (NCI-H1666; first compound 2.53 µM): 0.838
- relative viability (NCI-H1666; first compound 8 µM): 0.91
- relative viability (CAL-12T; first compound 0.08 µM): 0.376
- relative viability (CAL-12T; first compound 0.8 µM): 0.386
- relative viability (CAL-12T; first compound 2.53 µM): 0.283
- relative viability (CAL-12T; first compound 8 µM): 0.295
- relative viability (NCI-H1395; first compound 0.08 µM): 0.996
- relative viability (NCI-H1395; first compound 0.8 µM): 1.14
- relative viability (NCI-H1395; first compound 2.53 µM): 1.14
- relative viability (NCI-H1395; first compound 8 µM): 1.14
- relative viability (NCI-H520; first compound 0.08 µM): 0.689
- relative viability (NCI-H520; first compound 0.8 µM): 0.72
- relative viability (NCI-H520; first compound 2.53 µM): 0.95
- relative viability (NCI-H520; first compound 8 µM): 0.705
- relative viability (LCLC-103H; first compound 0.08 µM): 0.718
- relative viability (LCLC-103H; first compound 0.8 µM): 0.742
- relative viability (LCLC-103H; first compound 2.53 µM): 0.674
- relative viability (LCLC-103H; first compound 8 µM): 0.698
- relative viability (NCI-H647; first compound 0.08 µM): 0.489
- relative viability (NCI-H647; first compound 0.8 µM): 0.528
- relative viability (NCI-H647; first compound 2.53 µM): 0.638
- relative viability (NCI-H647; first compound 8 µM): 0.446
- relative viability (NCI-H2170; first compound 0.08 µM): 0.946
- relative viability (NCI-H2170; first compound 0.8 µM): 0.877
- relative viability (NCI-H2170; first compound 2.53 µM): 1.11
- relative viability (NCI-H2170; first compound 8 µM): 0.9
- relative viability (NCI-H1993; first compound 0.08 µM): 0.513
- relative viability (NCI-H1993; first compound 0.8 µM): 0.512
- relative viability (NCI-H1993; first compound 2.53 µM): 0.584
- relative viability (NCI-H1993; first compound 8 µM): 0.498
- relative viability (NCI-H1651; first compound 0.08 µM): 0.845
- relative viability (NCI-H1651; first compound 0.8 µM): 0.905
- relative viability (NCI-H1651; first compound 2.53 µM): 0.824
- relative viability (NCI-H1651; first compound 8 µM): 0.83
- relative viability (NCI-H2347; first compound 0.08 µM): 0.307
- relative viability (NCI-H2347; first compound 0.8 µM): 0.272
- relative viability (NCI-H2347; first compound 2.53 µM): 0.255
- relative viability (NCI-H2347; first compound 8 µM): 0.316
- relative viability (NCI-H2085; first compound 0.08 µM): 0.663
- relative viability (NCI-H2085; first compound 0.8 µM): 0.579
- relative viability (NCI-H2085; first compound 2.53 µM): 0.532
- relative viability (NCI-H2085; first compound 8 µM): 0.448
- relative viability (COR-L23; first compound 0.08 µM): 0.562
- relative viability (COR-L23; first compound 0.8 µM): 0.689
- relative viability (COR-L23; first compound 2.53 µM): 0.653
- relative viability (COR-L23; first compound 8 µM): 0.608
- relative viability (HCC-44; first compound 0.08 µM): 1.04
- relative viability (HCC-44; first compound 0.8 µM): 1.08
- relative viability (HCC-44; first compound 2.53 µM): 1.1
- relative viability (HCC-44; first compound 8 µM): 1.08
- relative viability (NCI-H23; first compound 0.08 µM): 0.344
- relative viability (NCI-H23; first compound 0.8 µM): 0.476
- relative viability (NCI-H23; first compound 2.53 µM): 0.437
- relative viability (NCI-H23; first compound 8 µM): 0.396
- relative viability (NCI-H2342; first compound 0.08 µM): 0.95
- relative viability (NCI-H2342; first compound 0.8 µM): 0.806
- relative viability (NCI-H2342; first compound 2.53 µM): 0.866
- relative viability (NCI-H2342; first compound 8 µM): 0.757
- relative viability (ChaGo-K-1; first compound 0.08 µM): 0.966
- relative viability (ChaGo-K-1; first compound 0.8 µM): 0.871
- relative viability (ChaGo-K-1; first compound 2.53 µM): 0.963
- relative viability (ChaGo-K-1; first compound 8 µM): 0.922
- relative viability (NCI-H322M; first compound 0.08 µM): 0.53
- relative viability (NCI-H322M; first compound 0.8 µM): 0.543
- relative viability (NCI-H322M; first compound 2.53 µM): 0.516
- relative viability (NCI-H322M; first compound 8 µM): 0.49
- relative viability (NCI-H1355; first compound 0.08 µM): 0.409
- relative viability (NCI-H1355; first compound 0.8 µM): 0.443
- relative viability (NCI-H1355; first compound 2.53 µM): 0.392
- relative viability (NCI-H1355; first compound 8 µM): 0.418
- relative viability (201T; first compound 0.08 µM): 0.698
- relative viability (201T; first compound 0.8 µM): 0.726
- relative viability (201T; first compound 2.53 µM): 0.731
- relative viability (201T; first compound 8 µM): 0.731
- relative viability (NCI-H661; first compound 0.08 µM): 0.604
- relative viability (NCI-H661; first compound 0.8 µM): 0.729
- relative viability (NCI-H661; first compound 2.53 µM): 0.657
- relative viability (NCI-H661; first compound 8 µM): 0.521
- relative viability (HOP-62; first compound 0.08 µM): 0.402
- relative viability (HOP-62; first compound 0.8 µM): 0.472
- relative viability (HOP-62; first compound 2.53 µM): 0.476
- relative viability (HOP-62; first compound 8 µM): 0.379
- relative viability (NCI-H2228; first compound 0.08 µM): 0.491
- relative viability (NCI-H2228; first compound 0.8 µM): 0.523
- relative viability (NCI-H2228; first compound 2.53 µM): 0.609
- relative viability (NCI-H2228; first compound 8 µM): 0.455
- relative viability (LC-2-ad; first compound 0.08 µM): 0.891
- relative viability (LC-2-ad; first compound 0.8 µM): 0.98
- relative viability (LC-2-ad; first compound 2.53 µM): 0.966
- relative viability (LC-2-ad; first compound 8 µM): 1.02
- relative viability (NCI-H838; first compound 0.08 µM): 0.523
- relative viability (NCI-H838; first compound 0.8 µM): 0.705
- relative viability (NCI-H838; first compound 2.53 µM): 0.571
- relative viability (NCI-H838; first compound 8 µM): 0.511
